Laboratory results: US8921397B2, “Benzofurane-piperidine compounds” (Hoffmann-La Roche Inc., priority 2011, dated 2014)

What was measured:
[1] = target: human D3 receptor (Homo sapiens (Human), UniProt P35462); test: Radioligand binding ([3H]-spiperone) to human D3 receptor, HEK293 EBNA membranes; conditions: HEK293 EBNA cells expressing human D3 receptor
Experimental: (§1) HEK293 EBNA cells were transiently transfected with expression plasmids encoding for the human D2 or D3 or for the human 5-HT2A receptor, respectively. The cells were harvested 48 h post-transfection, washed three times with cold PBS and stored at −80° C. prior to use. The pellet was suspended in cold 50 mM Tris-HCl buffer containing 10 mM EDTA (pH 7.4) and was homogenized with a Polytron (Kinematica AG, Basel, Switzerland) for 20-30 sec at 12.000 rpm. After centrifugation at 48.000×g for 30 min at 4° C., the pellet was resuspended in cold 10 mM Tris-HCl buffer containing 0.1 mM EDTA (pH 7.4), homogenized, and centrifuged as above. This pellet was further resuspended in a smaller volume of ice cold 10 mM Tris-HCl buffer containing 0.1 mM EDTA (pH 7.4) and homogenized with a Polytron for 20-30 sec at 12.000 rpm. The protein content of this homogenate was determined with the Bio-Rad (Bradford) Protein Assay (Biorad Laboratories GmbH, München, Germany) according to the instructions of the manufacturer using gamma globulin as the standard. This homogenate was stored at −80° C. in aliquots and thawed immediately prior to use.
(§2) Aliquots of membrane preparations were thawed at RT, resuspended in assay buffer (D2, D3: 50 mM Tris-HCl, 120 mM NaCl, 5 mM MgCl2, 1 mM EDTA, 5 mM KCl, 1.5 mM CaCl2, pH=7.4; 5-HT2A: 50 mM Tris-HCl, 10 mM MgCl2, 1 mM EGTA, pH=7.4), homogenized with a Polytron for 20-30 sec at 12.000 rpm and adjusted to a final concentration of approximately 7.5 μg protein/well (D2, D3) and 15 μg protein/well (5-HT2A), respectively.
(§3) The binding affinity (Ki) of the compounds was determined using radioligand binding.
(§4) Membranes were incubated in a total volume of 200 μl with a fixed concentration of radioligand (final concentration approximately 0.7 nM [^3H]-spiperone for D2, 0.5 nM [^3 H]-spiperone for D3, and 1.1 nM [^3H]-ketanserin for 5-HT2A) and ten concentrations of test compound in ranging between 10 μM-0.1 nM for 1 h at RT. At the end of the incubation, the reaction mixtures were filtered on to unifilter 96-well white microplates with bonded GF/C filters (Packard BioScience, Zürich, Switzerland; preincubated for 1 h in 0.1% polyethylenimine (PEI) in assay buffer) with a Filtermate 196 harvester (Packard BioScience) and washed 3 times with cold assay buffer. The nonspecific binding was determined with equally composed reaction mixtures in the presence of 10 μM unlabelled spiperone. Per well 45 μl of Microscint 40 (Perkin Elmer, Schwerzenbach, Switzerland) was added, plates for sealed, shaken for 20 min and counted for 3 min on a Topcount Microplate Scintillation Counter (Canberra Packard SA, Zürich, Switzerland) with quenching correction.
(§5) The CPM value for each duplicate of a concentration of competing compound was averaged (y1), then the % specific binding was calculated according to the equation (((y1−non-specific)/(total binding−non-specific))×100). Graphs were plotted with the % specific binding using XLfit, a curve-fitting program that iteratively plots the data using Levenberg-Marquardt algorithm. The single site competition analysis equation used was y=A+((B−A)/(1+((x/C)D))), where y is the % specific binding, A is the minimum y, B is the maximum y, C is the IC50, x is the log 10 of the concentration of the competing compound and D is the slope of the curve (the Hill Coefficient). From these curves the IC50 (inhibition concentration at which 50% specific binding of the radioligand was displaced) and Hill coefficient were determined. The affinity constant (Ki) was calculated using the Cheng-Prusoff equation Ki=(IC50/1+([L]/Kd), where [L] is the concentration of radioligand and Kd is the dissociation constant of the radioligand at the receptor as determined by the saturation isotherm.

[2] = target: human D2 receptor (Homo sapiens (Human), UniProt P14416); test: Radioligand binding ([3H]-spiperone) to human D2 receptor, HEK293 EBNA membranes; conditions: HEK293 EBNA cells expressing human D2 receptor
Experimental: as §1, §2, §3, §4, §5

[3] = target: human 5-HT2A receptor (Homo sapiens (Human), UniProt P28223); test: Radioligand binding ([3H]-ketanserin) to human 5-HT2A receptor, HEK293 EBNA membranes; conditions: HEK293 EBNA cells expressing human 5-HT2A receptor
Experimental: The ability of the compounds to bind to the 5-HT2A, D3 and D2 receptors was determined using radioligand binding to cloned receptors selectively expressed in HEK-293 EBNA cells.
as §1, §2, §3, §4, §5

human D2 receptor, sequence (P14416 whole entry): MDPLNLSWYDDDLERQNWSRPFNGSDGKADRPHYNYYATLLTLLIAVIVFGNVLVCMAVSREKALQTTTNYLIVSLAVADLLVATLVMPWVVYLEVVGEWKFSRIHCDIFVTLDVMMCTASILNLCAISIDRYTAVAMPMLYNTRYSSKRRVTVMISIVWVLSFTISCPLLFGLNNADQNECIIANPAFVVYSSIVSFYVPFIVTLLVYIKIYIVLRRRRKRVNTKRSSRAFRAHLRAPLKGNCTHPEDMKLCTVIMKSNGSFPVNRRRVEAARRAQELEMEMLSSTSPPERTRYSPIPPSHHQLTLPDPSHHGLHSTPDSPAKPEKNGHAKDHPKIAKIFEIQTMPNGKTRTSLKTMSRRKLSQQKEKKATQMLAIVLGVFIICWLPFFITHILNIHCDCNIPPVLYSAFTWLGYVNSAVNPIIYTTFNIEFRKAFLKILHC
human D3 receptor, sequence (P35462 whole entry): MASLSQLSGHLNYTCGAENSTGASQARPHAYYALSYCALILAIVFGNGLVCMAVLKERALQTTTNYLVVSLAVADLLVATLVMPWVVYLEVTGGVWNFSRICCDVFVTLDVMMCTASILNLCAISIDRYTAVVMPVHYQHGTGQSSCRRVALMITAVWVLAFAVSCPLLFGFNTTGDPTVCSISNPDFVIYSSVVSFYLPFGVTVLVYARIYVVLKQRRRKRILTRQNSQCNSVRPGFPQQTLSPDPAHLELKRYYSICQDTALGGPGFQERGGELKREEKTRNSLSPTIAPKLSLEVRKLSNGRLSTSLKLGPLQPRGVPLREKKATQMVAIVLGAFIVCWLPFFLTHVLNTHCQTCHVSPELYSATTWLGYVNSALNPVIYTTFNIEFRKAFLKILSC
human 5-HT2A receptor, sequence (P28223 whole entry): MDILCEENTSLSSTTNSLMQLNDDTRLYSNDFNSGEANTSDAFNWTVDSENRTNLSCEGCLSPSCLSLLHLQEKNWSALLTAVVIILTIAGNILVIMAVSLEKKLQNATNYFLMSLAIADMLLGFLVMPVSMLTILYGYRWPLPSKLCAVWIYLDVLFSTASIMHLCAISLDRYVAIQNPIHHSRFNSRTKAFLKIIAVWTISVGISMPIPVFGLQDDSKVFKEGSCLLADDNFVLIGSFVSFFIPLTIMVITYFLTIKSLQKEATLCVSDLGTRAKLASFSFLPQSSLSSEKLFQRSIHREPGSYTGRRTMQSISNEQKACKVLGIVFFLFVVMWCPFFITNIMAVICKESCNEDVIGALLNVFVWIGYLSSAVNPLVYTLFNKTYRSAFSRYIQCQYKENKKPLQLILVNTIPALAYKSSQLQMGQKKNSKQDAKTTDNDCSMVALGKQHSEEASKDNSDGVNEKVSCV

Row | SMILES | Ki [1] [nM] | Ki [2] [nM] | melting point [°C] | Ki [3] [nM]
1 | O=C(N[C@H]1CC[C@H](CCN2CCC(c3coc4ccccc34)CC2)CC1)c1ccnc2ccccc12 [Example 19, Quinoline-4-carboxylic acid trans-{4-[2-(4-benzofuran-3-yl-piperidin-1-yl)-ethyl]-cyclohexyl}-amide] | 3.36 | 96.7 | 169 | 8.7
2 | O=C(N[C@H]1CC[C@H](CCN2CCC(c3coc4ccccc34)CC2)CC1)C1CCC1 [Example 20, Cyclobutanecarboxylic acid trans-{4-[2-(4-benzofuran-3-yl-piperidin-1-yl)-ethyl]-cyclohexyl}-amide] | 1.85 | 38 | 180 | 5.56
3 | O=C(CCO)N[C@H]1CC[C@H](CCN2CCC(c3coc4ccccc34)CC2)CC1 [Example 21, trans-N-{4-[2-(4-Benzofuran-3-yl-piperidin-1-yl)-ethyl]-cyclohexyl}-3-hydroxy-propionamide] | 1.27 | 62.9 | 148 | 8.26
4 | O=C(N[C@H]1CC[C@H](CCN2CCC(c3coc4ccccc34)CC2)CC1)C1(O)CC1 [Example 22, 1-Hydroxy-cyclopropanecarboxylic acid trans-{4-[2-(4-benzofuran-3-yl-piperidin-1-yl)-ethyl]-cyclohexyl}-amide] | 1.48 | 47.5 | 200 | 3.05
5 | N#CCC(=O)N[C@H]1CC[C@H](CCN2CCC(c3coc4ccccc34)CC2)CC1 [Example 23, trans-N-{4-[2-(4-Benzofuran-3-yl-piperidin-1-yl)-ethyl]-cyclohexyl}-2-cyano-acetamide] | 0.84 | 41.5 | 186 | 5.96
6 | O=C(N[C@H]1CC[C@H](CCN2CCC(c3coc4ccccc34)CC2)CC1)c1ccc(F)cc1 [Example 24, trans-N-{4-[2-(4-Benzofuran-3-yl-piperidin-1-yl)-ethyl]-cyclohexyl}-4-fluoro-benzamide] | 3.05 | 68.9 | 193 | 5.66
7 | O=C(CC1CC1)N[C@H]1CC[C@H](CCN2CCC(c3coc4ccccc34)CC2)CC1 [Example 25, trans-N-{4-[2-(4-Benzofuran-3-yl-piperidin-1-yl)-ethyl]-cyclohexyl}-2-cyclopropyl-acetamide] | 2.24 | 33.7 | 165 | 5.16
8 | O=C(N[C@H]1CC[C@H](CCN2CCC(c3coc4ccccc34)CC2)CC1)C1CCCOC1 (stereo partly drawn) [Example 26, Tetrahydro-pyran-3-carboxylic acid trans-{4-[2-(4-benzofuran-3-yl-piperidin-1-yl)-ethyl]-cyclohexyl}-amide] | 5.88 | 37.1 | 188 | 4.7
9 | O=C(N[C@H]1CC[C@H](CCN2CCC(c3coc4ccccc34)CC2)CC1)C1CC1 [Example 27, Cyclopropanecarboxylic acid trans-{4-[2-(4-benzofuran-3-yl-piperidin-1-yl)-ethyl]-cyclohexyl}-amide] | 2.69 | 22.7 | 204 | 4.3
10 | CC(C)(C)C(=O)N[C@H]1CC[C@H](CCN2CCC(c3coc4ccccc34)CC2)CC1 [Example 28, trans-N-{4-[2-(4-Benzofuran-3-yl-piperidin-1-yl)-ethyl]-cyclohexyl}-2,2-dimethyl-propionamide] | 12.7 | 38 | 157 | 6.05
11 | O=C(CC1CCCO1)N[C@H]1CC[C@H](CCN2CCC(c3coc4ccccc34)CC2)CC1 (stereo partly drawn) [Example 29, trans-N-{4-[2-(4-Benzofuran-3-yl-piperidin-1-yl)-ethyl]-cyclohexyl}-2-(tetrahydro-furan-2-yl)-acetamide] | 2.75 | 52.9 | 149 | 5.43
12 | O=C(N[C@H]1CC[C@H](CCN2CCC(c3coc4ccccc34)CC2)CC1)C1CC1(F)F (stereo partly drawn) [Example 30, 2,2-Difluoro-cyclopropanecarboxylic acid trans-{4-[2-(4-benzofuran-3-yl-piperidin-1-yl)-ethyl]-cyclohexyl}-amide] | 3.53 | 28.1 | 189 | 8.59
13 | CCCC(=O)N[C@H]1CC[C@H](CCN2CCC(c3coc4ccccc34)CC2)CC1 [Example 33, trans-N-{4-[2-(4-Benzofuran-3-yl-piperidin-1-yl)-ethyl]-cyclohexyl}-butyramide] | 1.71 | 45.3 | 155 | 5.53
14 | CC(C)(O)CC(=O)N[C@H]1CC[C@H](CCN2CCC(c3coc4ccccc34)CC2)CC1 [Example 34, trans-N-{4-[2-(4-Benzofuran-3-yl-piperidin-1-yl)-ethyl]-cyclohexyl}-3-hydroxy-3-methyl-butyramide] | 2.25 | 41.3 | 150 | 5.1
15 | O=C(C[C@@H](O)C(F)(F)F)N[C@H]1CC[C@H](CCN2CCC(c3coc4ccccc34)CC2)CC1 [Example 35, trans-N-{4-[2-(4-Benzofuran-3-yl-piperidin-1-yl)-ethyl]-cyclohexyl}-(R)-4,4,4-trifluoro-3-hydroxy-butyramide] | 2.29 | 50.4 | 166 | 9.69
16 | CS(=O)(=O)N[C@H]1CC[C@H](CCN2CCC(c3coc4ccccc34)CC2)CC1 [Example 36, trans-N-{4-[2-(4-Benzofuran-3-yl-piperidin-1-yl)-ethyl]-cyclohexyl}-methanesulfonamide] | 2.85 | 47.4 | 142 | 5.43
17 | CCS(=O)(=O)N[C@H]1CC[C@H](CCN2CCC(c3coc4ccccc34)CC2)CC1 [Example 37, Ethanesulfonic acid trans-{4-[2-(4-benzofuran-3-yl-piperidin-1-yl)-ethyl]-cyclohexyl}-amide] | 2.87 | 48 | 153 | 5.07
18 | Cc1ccc(S(=O)(=O)N[C@H]2CC[C@H](CCN3CCC(c4coc5ccccc45)CC3)CC2)cc1 [Example 38, trans-N-{4-[2-(4-Benzofuran-3-yl-piperidin-1-yl)-ethyl]-cyclohexyl}-4-methyl-benzenesulfonamide] | 6.24 | 58.6 | 149 | 41.5
19 | O=C(N[C@H]1CC[C@H](CCN2CCC(c3coc4ccccc34)CC2)CC1)C(F)(F)F [Example 39, trans-N-{4-[2-(4-Benzofuran-3-yl-piperidin-1-yl)-ethyl]-cyclohexyl}-2,2,2-trifluoro-acetamide] | 4.08 | 37.5 | 152 | 8.62
20 | CC(C)(C)CC(=O)N[C@H]1CC[C@H](CCN2CCC(c3coc4ccccc34)CC2)CC1 [Example 40, trans-N-{4-[2-(4-Benzofuran-3-yl-piperidin-1-yl)-ethyl]-cyclohexyl}-3,3-dimethyl-butyramide] | 4.35 | 53 | 174 | 10.4
